Test results reported in patent publication US12048704B2, “Method for treatment of cancer with combination of cold atmospheric plasma and a gene inhibitor” (Jerome Canady Research Institute for Advanced Biological …, priority 2019, dated 2024).

System: MDA-MB-231 cells
Experiment: MTT cell viability assay with/without CAP treatment
Type: cell-based, Human
Settings: for cell viability (baseline toxicity), agent alone: MDA-MB-231, without CAP treatment, MTT 24 hours
Method: Human breast cancer cell lines T-47D, SK-BR-3, and BT-474, were purchased from ATCC (Manassas, Va., USA). MCF-7, MDA-MB-231, Hs578T, and HCC1806 were generously donated by Professor Kanaan' s laboratory at Howard University. All cell lines except SK-BR-3 were cultured in Roswell Park Memorial Institute (RPMI) 1640 Medium supplemented with 10% fetal bovine serum (Sigma-Aldrich, St. Louis, Mo., USA) and 1% Pen Strep (Thermo Fisher Scientific, Waltham, Mass., USA) in a 37° C. and 5% CO2 humidified incubator (Thermo Fisher Scientific, Waltham, Mass., USA). The exceptions for culture conditions include T-47D, which was additionally supplemented with 0.5 mg/mL insulin. SK-BR-3 was cultured in McCoy's 5A Medium. When cells reached approximately 80% confluence, cells were seeded at a concentration of 10^5 cells/well into 12-well plates (USA Scientific, Ocala, Fla., USA) with a 1 mL media volume per well for cell viability assays. MDA-MB-231 cells were transfected with siRNA and transfection reagent according to the manufacturer's instructions. Transfection of BCL2A1 esiRNA or control esiRNA was done at 13 pmol. Briefly, cells were seeded in a 12-well-plate at a density of 1×10^5 cells/well overnight in (RPMI) 1640 Medium supplemented with 10% fetal bovine serum (Sigma-Aldrich, St. Louis, Mo., USA) and 1% Pen Strep (Thermo Fisher Scientific, Waltham, Mass., USA) in a 37° C. and 5% CO2 humidified incubator. The media was replaced with antibiotics-free medium RPMI 2 minutes before the transfection. esiRNA was mixed with Lipofectamine RNAiMAX transfection reagent in 100 μl optimal medium at the required concentration of 13 pmol/mL and were incubated at room temperature for 30 min to form a complex and the mixture was supplemented to each well with optimal medium. Four hours after the transfection, the transfected cells were CAP treated. After 24 hours after the CAP treatment, cells viability was assessed by using MTT assay. Thiazolyl blue tetrazolium bromide (MTT) assay was performed on the cells 24 hours after plasma treatment following the manufacturer's protocol with all MTT assay reagents purchased from Sigma-Aldrich (St. Louis, Mo., USA). The absorbance of the dissolved compound was measured by BioTek Synergy HTX (Winooski, Vt., USA) microplate reader at 570 nm following standard procedure. All viability assays were repeated 3 times with at least 2 replicates each. Data was plotted by Microsoft Excel 2016 as the mean±standard error of the mean. A student t-test or a one-way analysis of variance (ANOVA) was used to check statistical significance where applicable. The differences were considered statistically significant for * p<0.05. A one-way multivariate analysis of variance (MANOVA) followed by a Post-Hoc test was used to check statistical significance where applicable. […] At 24 hrs after transfection with BCL2A1 esiRNA (13 pmol), as mentioned in methods section survival of treatments was determined by MTT assay. The data is represented by the SEM (n=3). (**** P<0.0001* p<0.05, ** p<0.01, *** p<0.001, Student's t-test) versus control. FIGS. 19A-19B show viability of triple cancer breast cancer cell line MDA-MB-231 with Gambogic acid, an antagonist of antiapoptotic Bc1-2 family (FIG. 19A) or CPI203 (FIG. 19B, a BET bromodomain inhibitor after CAP treatment. Bar graph represents MDA-MB-231 MTT cell viability assay after treatment with Gambogic acid (FIG. 19A) or CPI203 (FIG. 19B) in combination of with/without CAP treatment at 80 p Or 120 p 5 mins at 3 L/min He. The samples were compared to the mock control groups. The data is represented by the SEM (n=3). (* p<0.05, ** p<0.01, *** p<0.001, Student's t-test).

| Structure (SMILES) | cell viability, CPI203 with CAP treatment (MDA-MB-231, 0.25 uM, p<0.05) | cell viability, CPI203 with CAP treatment (MDA-MB-231, 1uM, p<0.01) | cell viability, CPI203 with CAP treatment (MDA-MB-231, 5uM, p<0.001) | cell viability (baseline toxicity), agent alone | CAP-induced cell death, combination of CAP and agent (breast cancer cells, p<0.05) | cell viability in combination with CAP treatment compared to CAP treatment alone (MDA-MB-231, CAP 80 p or 120 p 5 mins at 3 L/min He, MTT 24 hours after CAP) |
| --- | --- | --- | --- | --- | --- | --- |
| Cc1sc2c(c1C)C(c1ccc(Cl)cc1)=N[C@@H](CC(N)=O)c1nnc(C)n1-2 [CPI203] | significant reduction in cell viability | significant reduction in cell viability | significant reduction in cell viability | without any cytotoxicity by itself | dramatically increased the CAP-induced cell death |  |
| CC(C)=CCC[C@]1(C)C=Cc2c(O)c3c(c(CC=C(C)C)c2O1)O[C@]12C(=C[C@@H]4C[C@H]1C(C)(C)O[C@@]2(C/C=C(/C)C(=O)O)C4=O)C3=O [GA, gambogic acid] |  |  |  | cell viability decreased in all the 5 doses |  | no dose that significantly reduced the viability of cells |
